Assays:
[1] = test system: foxtail, green (green foxtail, Setaria viridis); assay: Test D pre-/postemergence controlled growth environment herbicide test; type: in vivo; details: scale 0 to 100
Source text: (§1) Seeds of plant species selected from bluegrass (annual bluegrass, Poa annua), blackgrass (Alopecurus myosuroides), canarygrass (Phalaris minor), chickweed (common chickweed, Stellaria media), galium (catchweed bedstraw, Galium aparine), downy bromegrass (Bromus tectorum), field poppy (Papaver rhoeas), field violet (Viola arvensis), foxtail, green (green foxtail, Setaria viridis), deadnettle (henbit deadnettle, Lamium amplexicaule), ryegrass, Italian (Italian ryegrass, Lolium multiflorum), kochia (Kochia scoparia), lambsquarters (Chenopodium album), oilseed rape (Brassica napus), pigweed (Amaranthus retroflexus), chamomile (scentless chamomile, Matricaria inodora), Russian thistle (Salsola kali), speedwell (bird's-eye speedwell, Veronica persica), barley, spring (spring barley, Hordeum vulgare), wheat, spring (spring wheat, Triticum aestivum), buckwheat, wild (wild buckwheat, Polygonum convolvulus), mustard, wild (wild mustard, Sinapis arvensis), oat, wild (wild oat, Avena fatua), radish, wild (wild radish, Raphanus raphanistrum), windgrass (Apera spica-venti), barley, winter (winter barley, Hordeum vulgare), and wheat, winter (winter wheat, Triticum aestivum) were planted into a silt loam soil and treated preemergence with test chemicals formulated in a non-phytotoxic solvent mixture which included a surfactant.
(§2) At the same time, these species were planted in pots containing Redi-Earth® planting medium (Scotts Company, 14111 Scottslawn Road, Marysville, Ohio 43041) comprising spaghnum peat moss, vermiculite, wetting agent and starter nutrients and treated with postemergence applications of the test chemicals formulated in the same manner. Plants ranged in height from 2 to 18 cm (1- to 4-leaf stage). Treated plants and controls were maintained in a controlled growth environment for 14 to 21 d after which time all species were compared to controls and visually evaluated. Plant response ratings, summarized in Table D, are based on a scale of 0 to 100 where 0 is no effect and 100 is complete control. A dash (-) response means no test result.

[2] = test system: speedwell (bird's-eye speedwell, Veronica persica); assay: as above; type: in vivo; details: scale 0 to 100
Source text: as §1, §2

| SMILES | Plant response rating ([1]; Postemergence, 31 g ai/ha) | Plant response rating ([1]; Postemergence, 62 g ai/ha) | Plant response rating ([1]; Postemergence, 125 g ai/ha) | Plant response rating ([1]; Postemergence, 250 g ai/ha) | Plant response rating ([1]; Postemergence, 500 g ai/ha) | Plant response rating ([1]; Preemergence, 31 g ai/ha) | Plant response rating ([1]; Preemergence, 62 g ai/ha) | Plant response rating ([1]; Preemergence, 125 g ai/ha) | Plant response rating ([1]; Preemergence, 250 g ai/ha) | Plant response rating ([1]; Preemergence, 500 g ai/ha) | Plant response rating ([2]; Postemergence, 31 g ai/ha) | Plant response rating ([2]; Postemergence, 62 g ai/ha) | Plant response rating ([2]; Postemergence, 125 g ai/ha) | Plant response rating ([2]; Postemergence, 250 g ai/ha) | Plant response rating ([2]; Postemergence, 500 g ai/ha) | Plant response rating ([2]; Preemergence, 31 g ai/ha) | Plant response rating ([2]; Preemergence, 62 g ai/ha) | Plant response rating ([2]; Preemergence, 125 g ai/ha) | Plant response rating ([2]; Preemergence, 250 g ai/ha) | Plant response rating ([2]; Preemergence, 500 g ai/ha) | also measured |
| --- | --- | --- | --- | --- | --- | --- | --- | --- | --- | --- | --- | --- | --- | --- | --- | --- | --- | --- | --- | --- | --- |
| Cc1cc(=O)n(-c2ccc(F)cc2)nc1Cc1ccnc(C(F)(F)F)c1 [Compound 1, 2-(4-fluorophenyl)-5-methyl-6-[[2-(trifluoromethyl)-4-pyridinyl]methyl]-3(2H)-pyridazinone] | 0 | 0 | 0 | 20 | 70 | 0 | 60 | 100 | 100 | 100 | 30 | 80 | 100 | 40 | 100 | 100 | 100 | 100 | 100 | 100 | – |
| Cc1cc(=O)n(-c2ccc(C(F)(F)F)cc2)nc1Cc1ccnc(C(F)(F)F)c1 [Compound 2, 5-methyl-2-[4-(trifluoromethyl)phenyl]-6-[[2-(trifluoromethyl)-4-pyridinyl]methyl]-3(2H)-pyridazinone] | 0 | 5 | 40 | 45 | 75 | 20 | – | 85 | 100 | 100 | 100 | 100 | 100 | 100 | 100 | 100 | 100 | 100 | 100 | 100 | – |
| Cc1cc(=O)n(-c2ccc(F)cc2)nc1Oc1ccnc(C(F)(F)F)c1 [Compound 14, 2-(4-fluorophenyl)-5-methyl-6-[[2-(trifluoromethyl)-4-pyridinyl]oxy]-3 (2H)-pyridazinone] | 10 | 20 | 15 | 15 | – | 15 | 40 | 70 | 100 | – | 100 | 100 | 100 | 100 | – | – | – | – | 100 | – | Plant response rating ([1]; Postemergence, 16 g ai/ha): 30; Plant response rating ([1]; Preemergence, 16 g ai/ha): 0; Plant response rating ([2]; Postemergence, 16 g ai/ha): 100 |
